Common to all, as to type: biochemical
For assay [1], the target named is T1, VEGFR-2 (Homo sapiens, UniProt P35968).
T1 construct: purchased
Put plainly: VEGFR-2/KDR ELISA kit kinase assay. On the procedure: (§1) The inhibition percentages of the target compound 5l at a concentration of 10 µM were assessed using DMSO as a solvent against ten kinases, namely PTK2B, JAK1, CDK2, FGFR1, IGF1R, VEGFR-2, PDGFRα, PDGFRβ, FLT3, and Src. The Z’-LYTE® technology, which relies on FRET (Fluorescence Resonance Energy Transfer) from Invitrogen/Life Technologies, was employed for this evaluation for all kinases except VEGFR-2. The VEGFR-2 kinase assay was conducted in a 96-well streptavidin-coated plate using a recombinant human VEGFR-2/KDR ELISA kit, following the manufacturer’s instructions. […] Statistical significance was assessed using one-way analysis of variance (ANOVA), followed by the Dunnett test; data are represented as means ± SD.

Assay [2] has as its target T2, IGF1R (Homo sapiens, UniProt P08069).
T2 construct: purchased Invitrogen/Life Technologies
Put plainly: Z'-LYTE kinase assay. On the procedure: as §1

In assay [3] the target is T3, PDGFRβ (Homo sapiens, UniProt P09619).
T3 construct: purchased Invitrogen/Life Technologies
T3 sequence (P09619 33-1106): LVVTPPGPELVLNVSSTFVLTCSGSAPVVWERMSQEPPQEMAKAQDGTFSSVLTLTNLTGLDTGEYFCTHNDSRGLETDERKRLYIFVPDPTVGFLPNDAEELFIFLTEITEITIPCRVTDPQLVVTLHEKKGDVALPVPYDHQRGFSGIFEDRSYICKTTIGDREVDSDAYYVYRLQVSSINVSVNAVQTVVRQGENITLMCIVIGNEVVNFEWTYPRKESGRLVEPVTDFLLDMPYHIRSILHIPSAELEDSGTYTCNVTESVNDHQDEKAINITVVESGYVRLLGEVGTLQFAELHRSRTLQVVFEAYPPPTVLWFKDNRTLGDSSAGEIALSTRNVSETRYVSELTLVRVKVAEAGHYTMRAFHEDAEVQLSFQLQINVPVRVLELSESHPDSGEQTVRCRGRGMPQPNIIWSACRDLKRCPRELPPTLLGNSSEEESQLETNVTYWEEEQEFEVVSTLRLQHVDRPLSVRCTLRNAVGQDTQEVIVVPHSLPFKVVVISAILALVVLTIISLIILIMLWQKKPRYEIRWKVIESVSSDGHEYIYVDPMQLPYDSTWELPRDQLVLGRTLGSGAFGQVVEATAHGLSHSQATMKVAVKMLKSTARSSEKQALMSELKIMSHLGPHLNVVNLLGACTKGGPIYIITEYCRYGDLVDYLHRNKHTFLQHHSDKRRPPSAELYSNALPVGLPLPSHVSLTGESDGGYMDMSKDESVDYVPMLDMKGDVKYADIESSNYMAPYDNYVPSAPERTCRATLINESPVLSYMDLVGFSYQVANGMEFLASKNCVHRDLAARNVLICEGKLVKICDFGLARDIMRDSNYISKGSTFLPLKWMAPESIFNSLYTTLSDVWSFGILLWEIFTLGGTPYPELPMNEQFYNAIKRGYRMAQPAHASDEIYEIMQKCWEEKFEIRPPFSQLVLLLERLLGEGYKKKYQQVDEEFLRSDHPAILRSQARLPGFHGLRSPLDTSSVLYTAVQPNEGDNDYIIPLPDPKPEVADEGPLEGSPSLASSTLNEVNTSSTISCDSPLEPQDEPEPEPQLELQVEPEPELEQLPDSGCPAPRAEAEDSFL
Put plainly: Z'-LYTE kinase assay. The procedure:
as §1

In assay [4] the target is T4, PTK2B (Homo sapiens, UniProt Q14289).
T4 construct: purchased Invitrogen/Life Technologies
T4 sequence (Q14289 whole entry): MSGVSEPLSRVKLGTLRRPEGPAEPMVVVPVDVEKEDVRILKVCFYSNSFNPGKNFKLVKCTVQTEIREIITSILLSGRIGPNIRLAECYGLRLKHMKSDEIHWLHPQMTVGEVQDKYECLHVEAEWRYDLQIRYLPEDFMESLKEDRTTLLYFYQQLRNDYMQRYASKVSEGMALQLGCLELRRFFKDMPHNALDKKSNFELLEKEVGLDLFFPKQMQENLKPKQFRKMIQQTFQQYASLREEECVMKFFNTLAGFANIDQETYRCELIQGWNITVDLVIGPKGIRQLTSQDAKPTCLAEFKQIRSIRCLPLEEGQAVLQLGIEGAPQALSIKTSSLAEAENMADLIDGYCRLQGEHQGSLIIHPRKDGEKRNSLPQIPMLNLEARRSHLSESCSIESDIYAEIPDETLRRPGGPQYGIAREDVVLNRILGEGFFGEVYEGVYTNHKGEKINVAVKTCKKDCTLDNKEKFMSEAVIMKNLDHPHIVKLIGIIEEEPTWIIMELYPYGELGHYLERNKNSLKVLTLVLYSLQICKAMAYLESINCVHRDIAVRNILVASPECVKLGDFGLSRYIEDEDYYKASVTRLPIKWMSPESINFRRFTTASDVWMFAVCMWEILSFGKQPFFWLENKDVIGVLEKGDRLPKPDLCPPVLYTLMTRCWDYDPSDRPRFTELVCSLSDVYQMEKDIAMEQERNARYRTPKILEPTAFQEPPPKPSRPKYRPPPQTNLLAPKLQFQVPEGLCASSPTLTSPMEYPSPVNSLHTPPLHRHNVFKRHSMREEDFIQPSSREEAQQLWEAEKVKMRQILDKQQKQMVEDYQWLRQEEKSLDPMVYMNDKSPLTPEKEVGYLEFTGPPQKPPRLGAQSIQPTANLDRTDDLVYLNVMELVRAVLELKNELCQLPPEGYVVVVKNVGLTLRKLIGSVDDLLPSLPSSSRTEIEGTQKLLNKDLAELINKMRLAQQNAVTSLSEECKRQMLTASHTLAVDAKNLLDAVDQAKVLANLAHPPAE
Put plainly: Z'-LYTE kinase assay. The procedure: as §1

Molecules are shown by their SMILES.

T2 sequence (P08069 31-1367): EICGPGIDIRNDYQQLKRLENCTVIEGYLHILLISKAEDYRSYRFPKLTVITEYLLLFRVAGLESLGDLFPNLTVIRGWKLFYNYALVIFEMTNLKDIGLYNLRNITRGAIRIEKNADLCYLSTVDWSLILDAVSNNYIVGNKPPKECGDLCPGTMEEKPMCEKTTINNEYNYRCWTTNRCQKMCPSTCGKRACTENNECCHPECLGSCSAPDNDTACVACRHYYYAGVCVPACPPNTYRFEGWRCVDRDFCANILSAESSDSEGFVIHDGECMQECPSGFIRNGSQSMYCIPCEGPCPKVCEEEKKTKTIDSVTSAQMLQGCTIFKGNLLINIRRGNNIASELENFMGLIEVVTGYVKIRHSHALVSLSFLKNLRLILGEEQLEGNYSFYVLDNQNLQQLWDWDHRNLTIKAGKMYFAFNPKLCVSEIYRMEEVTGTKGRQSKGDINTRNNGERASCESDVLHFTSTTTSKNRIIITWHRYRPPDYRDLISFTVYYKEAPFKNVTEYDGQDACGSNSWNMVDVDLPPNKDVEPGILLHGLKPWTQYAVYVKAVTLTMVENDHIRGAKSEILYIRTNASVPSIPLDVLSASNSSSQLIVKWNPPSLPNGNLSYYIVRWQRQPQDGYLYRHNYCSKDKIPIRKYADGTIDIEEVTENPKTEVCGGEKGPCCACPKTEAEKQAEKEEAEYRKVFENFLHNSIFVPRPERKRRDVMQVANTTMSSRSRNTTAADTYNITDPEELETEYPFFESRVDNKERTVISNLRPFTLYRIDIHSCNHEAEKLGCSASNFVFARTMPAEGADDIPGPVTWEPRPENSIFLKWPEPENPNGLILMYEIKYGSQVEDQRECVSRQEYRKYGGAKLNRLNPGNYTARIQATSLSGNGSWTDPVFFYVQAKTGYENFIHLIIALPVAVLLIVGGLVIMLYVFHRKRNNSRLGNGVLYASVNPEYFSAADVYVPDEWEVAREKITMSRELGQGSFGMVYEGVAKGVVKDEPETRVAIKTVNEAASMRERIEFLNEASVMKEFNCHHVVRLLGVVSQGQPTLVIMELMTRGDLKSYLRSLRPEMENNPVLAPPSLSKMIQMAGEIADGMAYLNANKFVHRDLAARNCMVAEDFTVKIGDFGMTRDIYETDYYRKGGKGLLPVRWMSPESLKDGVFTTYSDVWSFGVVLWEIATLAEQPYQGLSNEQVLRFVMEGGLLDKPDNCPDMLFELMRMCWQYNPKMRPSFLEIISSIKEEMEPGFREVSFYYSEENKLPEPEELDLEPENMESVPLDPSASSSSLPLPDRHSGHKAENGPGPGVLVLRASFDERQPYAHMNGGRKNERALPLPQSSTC
T1 sequence (P35968 20-1356): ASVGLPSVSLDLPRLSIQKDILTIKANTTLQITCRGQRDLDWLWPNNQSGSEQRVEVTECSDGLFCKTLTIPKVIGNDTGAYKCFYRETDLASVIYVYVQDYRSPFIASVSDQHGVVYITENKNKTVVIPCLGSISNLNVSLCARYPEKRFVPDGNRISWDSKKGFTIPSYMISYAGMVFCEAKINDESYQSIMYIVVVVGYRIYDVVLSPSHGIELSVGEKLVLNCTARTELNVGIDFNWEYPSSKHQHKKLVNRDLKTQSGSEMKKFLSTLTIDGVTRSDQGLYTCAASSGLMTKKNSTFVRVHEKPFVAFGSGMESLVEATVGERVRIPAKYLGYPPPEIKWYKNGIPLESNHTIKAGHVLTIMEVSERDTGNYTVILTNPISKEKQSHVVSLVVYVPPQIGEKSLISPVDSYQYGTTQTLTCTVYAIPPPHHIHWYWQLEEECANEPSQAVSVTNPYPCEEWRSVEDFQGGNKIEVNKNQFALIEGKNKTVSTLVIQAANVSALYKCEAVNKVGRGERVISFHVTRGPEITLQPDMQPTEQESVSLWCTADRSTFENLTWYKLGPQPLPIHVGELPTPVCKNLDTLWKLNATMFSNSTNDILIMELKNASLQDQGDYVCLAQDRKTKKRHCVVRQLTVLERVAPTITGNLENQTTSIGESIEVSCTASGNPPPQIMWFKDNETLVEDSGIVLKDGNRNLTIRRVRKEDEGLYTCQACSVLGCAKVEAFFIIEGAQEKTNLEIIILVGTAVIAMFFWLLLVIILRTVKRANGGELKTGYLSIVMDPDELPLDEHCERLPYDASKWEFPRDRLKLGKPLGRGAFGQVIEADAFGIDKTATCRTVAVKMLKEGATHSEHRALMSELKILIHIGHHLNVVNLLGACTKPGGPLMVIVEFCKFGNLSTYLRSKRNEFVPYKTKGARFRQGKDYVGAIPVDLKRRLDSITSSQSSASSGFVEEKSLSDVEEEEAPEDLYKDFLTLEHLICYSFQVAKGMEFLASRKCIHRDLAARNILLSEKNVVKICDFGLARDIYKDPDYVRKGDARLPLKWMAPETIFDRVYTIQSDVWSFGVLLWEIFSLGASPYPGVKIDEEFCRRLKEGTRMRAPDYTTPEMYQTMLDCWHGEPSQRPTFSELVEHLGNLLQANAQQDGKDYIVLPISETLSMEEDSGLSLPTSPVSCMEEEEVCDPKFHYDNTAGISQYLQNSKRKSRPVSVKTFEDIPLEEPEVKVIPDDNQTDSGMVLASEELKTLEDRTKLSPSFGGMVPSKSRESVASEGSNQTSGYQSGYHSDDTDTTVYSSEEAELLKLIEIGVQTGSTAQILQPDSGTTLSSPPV

With `O=C1Nc2cc(Cl)ccc2C1=Cc1ccc(OCc2cccnc2)cc1` (mixture of isomers) [Compound 5l, (E/Z)-6-Chloro-3-[4-(pyridin-3-ylmethoxy)benzylidene] indolin-2-one], the inhibition at 10 µM was found to be 38.5% in assay [1], 2.88% in assay [2], 26.6% in assay [3] and 9.96% in assay [4].

Values taken from article PMC11124822, “Discovery and Anticancer Screening of Novel Oxindole-Based Derivative Bearing Pyridyl Group as Potent and Selective Dual FLT3/CDK2 Kinase Inhibitor” (Pharmaceuticals, 2024).
